# Reference: patent publication US9510598B2, “Nitrogen-containing heterocyclic compounds for plant disease control” (BAYER CROPSCIENCE AG, priority 2012, dated 2016)
# Type: physicochemical
# Settings: HPLC on reversed phase columns, method [a]: pH 2.7, 0.1% formic acid in water / acetonitrile, linear gradient 10% to 95% acetonitrile
row,Compound,log P
1,CC(C)CC(C)NC(=O)C1(C)CC(c2ccc3ncc(Br)cc3c2)=NO1 (stereo not drawn) [compound 321],3.80[a]
2,CCOCCCNC(=O)C1(C2CC2)CC(c2ccc3ncc(Br)cc3c2)=NO1 (stereo not drawn) [compound 270],3.21[a]
3,COC1(C(=O)NCC2COC(C)(C)O2)CC(c2cc(C)c3ncc(Br)cc3c2)=NO1 (stereo not drawn) [compound 601],3.33[a]
4,C#Cc1cnc2ccc(C3=NOC(C)(C(=O)NCCF)C3)cc2c1 (stereo not drawn) [compound 640],2.05[a]
5,C#Cc1cnc2c(C)cc(C3=NOC(OC)(C(=O)NCC4COC(C)(C)O4)C3)cc2c1 (stereo not drawn) [compound 605],2.92[a]
6,C=Cc1cnc2ccc(C3=NOC(C)(C(=O)NCc4cn(CC)nc4C)C3)cc2c1 (stereo not drawn) [compound 308],1.95[a]
7,C#Cc1cnc2ccc(C3=NOC(C)(C(=O)NC(C)CC(C)C)C3)cc2c1 (stereo not drawn) [compound 316],3.37[a]
8,C#Cc1cnc2ccc(C3=NOC(C)(C(=O)NCC[Si](C)(C)C)C3)cc2c1 (stereo not drawn) [compound 231],3.7^[a]
9,CC(NC(=O)C1(C)CC(c2ccc3ncc(Br)cc3c2)=NO1)c1ccc(OC(F)(F)F)cc1 (stereo not drawn) [compound 344],4.16[a]
10,C#Cc1cnc2ccc(C3=NOC(C)(C(=O)NCc4ncccc4OC)C3)cc2c1 (stereo not drawn) [compound 645],2.01[a]
11,CCn1cc(CNC(=O)C2(C)CC(c3ccc4nc(C#N)c(Br)cc4c3)=NO2)c(C)n1 (stereo not drawn) [compound 302],2.57[a]
12,C#Cc1cnc2ccc(C3=NOC(C)(C(=O)NCc4cn(CC)nc4Br)C3)cc2c1 (stereo not drawn) [compound 634],2.56[a]
13,C#Cc1cnc2ccc(C3=NOC(C)(C(=O)NCc4ccnc(OC)c4)C3)cc2c1 (stereo not drawn) [compound 674],2.26[a]
14,CCOCCCNC(=O)C1(OC)CC(c2cc(Cl)c3ncc(Br)cc3c2)=NO1 (stereo not drawn) [compound 577],3.19[a]
15,C#Cc1cnc2ccc(C3=NOC(C)(C(=O)NC(C)c4ccc(Cl)cc4)C3)cc2c1 (stereo not drawn) [compound 346],3.44[a]
16,C#Cc1cnc2c(C)cc(C3=NOC(OC)(C(=O)NCc4cnc(C)cn4)C3)cc2c1 (stereo not drawn) [compound 611],2.46[a]
17,COc1ccncc1CNC(=O)C1(C)CC(c2ccc3ncc(Br)cc3c2)=NO1 (stereo not drawn) [compound 670],1.40[a]
18,C#Cc1cnc2c(C)cc(C3=NOC(C)(C(=O)NCc4cn(CC)nc4C)C3)cc2c1 (stereo not drawn) [compound 581],2.62[a]
19,CC(O)C1(C(=O)NC2CCC2)CC(c2ccc3ncc(Br)cc3c2)=NO1 (stereo not drawn) [compound 563],2.41[a]
20,CC(=O)C1(C(=O)NCc2cnc(C)cn2)CC(c2ccc3ncc(Br)cc3c2)=NO1 (stereo not drawn) [compound 584],2.37[a]
21,C#Cc1cnc2ccc(C3=NOC(C)(C(=O)NCc4cn(CCCC)nc4C)C3)cc2c1 (stereo not drawn) [compound 656],2.64[a]
22,CC(C)C(C)(C)NC(=O)C1(C)CC(c2ccc3ncc(Br)cc3c2)=NO1 (stereo not drawn) [compound 325],4.19[a]
23,C#Cc1cnc2c(C)cc(C3=NOC(OC)(C(=O)NCCCOCC)C3)cc2c1 (stereo not drawn) [compound 607],3.00[a]
24,C#Cc1cnc2ccc(C3=NOC(C)(C(=O)NCC4C5CC6CC(C5)CC4C6)C3)cc2c1 (stereo not drawn) [compound 250],4.46^[a]
25,Cc1cc(C)nc(CNC(=O)C2(C)CC(c3ccc4ncc(Br)cc4c3)=NO2)n1 (stereo not drawn) [compound 662],2.51[a]
26,C#Cc1cnc2ccc(C3=NOC(C)(C(=O)NCc4cn(CC)nc4SC)C3)cc2c1 (stereo not drawn) [compound 635],2.51[a]

# Same assay, conditions: HPLC on reversed phase columns, method [a]: pH 2.7, 0.1% formic acid in water and acetonitrile, linear gradient 10% to 95% acetonitrile
row,Compound,log P
1,C#Cc1cnc2ccc(C3=NOC(C)(C(=O)NCc4cncc(F)c4)C3)cc2c1 (stereo not drawn) [compound 781],2.13[a]
2,C#Cc1cnc2ccc(C3=NOC(C)(C(=O)NCc4ccnc(NC5CC5)c4)C3)cc2c1 (stereo not drawn) [compound 809],1.45[a]
3,CCc1cccc(CNC(=O)C2(C)CC(c3ccc4ncc(Br)cc4c3)=NO2)n1 (stereo not drawn) [compound 746],1.88[a]
4,C#Cc1cnc2ccc(C3=NOC(C)(C(=O)NCc4ccc(CC)cn4)C3)cc2c1 (stereo not drawn) [compound 747],1.82[a]
5,CC1(CNC(=O)C2(C)CC(c3ccc4ncc(Br)cc4c3)=NO2)CCC1 (stereo not drawn) [compound 757],3.65[a]
6,CC1(C(=O)NCc2ccnc(F)c2)CC(c2ccc3ncc(Br)cc3c2)=NO1 (stereo not drawn) [compound 803],2.51[a]
7,C#Cc1cnc2ccc(C3=NOC(C)(C(=O)NCc4ccnc(SC(C)(C)C)c4)C3)cc2c1 (stereo not drawn) [compound 796],3.02[a]
8,C#Cc1cnc2ccc(C3=NOC(C)(C(=O)NCc4ccncc4F)C3)cc2c1 (stereo not drawn) [compound 804],2.02[a]
9,C#Cc1cnc2ccc(C3=NOC(C)(C(=O)NCc4ccnc(C(F)(F)F)c4)C3)cc2c1 (stereo not drawn) [compound 762],2.64[a]
10,Cc1cc(CNC(=O)C2(C)CC(c3ccc4ncc(Br)cc4c3)=NO2)ccn1 (stereo not drawn) [compound 684],1.40[a]
11,C#Cc1cnc2ccc(C3=NOC(C)(C(=O)NCc4cccnc4F)C3)cc2c1 (stereo not drawn) [compound 783],2.23[a]
12,C#Cc1cnc2ccc(C3=NOC(C)(C(=O)NC4CC(F)(F)C4)C3)cc2c1 (stereo not drawn) [compound 776],2.57[a]
13,CCC(C#N)NC(=O)C1(C)CC(c2ccc3ncc(Br)cc3c2)=NO1 (stereo not drawn) [compound 721],2.75[a]
14,CCn1cc(CNC(=O)C2(C)CC(c3ccc4ncc(Br)c(Cl)c4c3)=NO2)c(C)n1 (stereo not drawn) [compound 735],2.69[a]
15,CCn1cc(CNC(=O)C2(C)CC(c3ccc4ncc(Br)cc4c3)=NO2)c(C(F)(F)F)n1 (racemic) [compound 821],3.13[a]
16,CC1(C(=O)NCc2cccnc2C#N)CC(c2ccc3ncc(Br)cc3c2)=NO1 (stereo not drawn) [compound 814],1.91[a]
17,C#Cc1cnc2ccc(C3=NOC(C)(C(=O)NCc4cncc(C#N)c4)C3)cc2c1 (stereo not drawn) [compound 779],2.10[a]
18,CCc1ccnc(CNC(=O)C2(C)CC(c3ccc4ncc(Br)cc4c3)=NO2)c1 (stereo not drawn) [compound 752],1.82[a]
19,Cc1cccc(CNC(=O)C2(C)CC(c3ccc4ncc(Br)cc4c3)=NO2)n1 (stereo not drawn) [compound 690],1.60[a]
20,COC1(C(=O)Nc2cccc(CON=C(c3ccccc3)c3noc(=O)n3C)n2)CC(c2ccc3ncc(Br)cc3c2)=NO1 (stereo not drawn) [compound 711],4.39[a]
21,CCC(C)NC(=O)C1(C)CC(c2ccc3ncc(Br)cc3c2)=NO1 (stereo not drawn) [compound 742],3.37[a]

# Same assay, conditions: method [a]: HPLC/LC-MS on reversed phase at pH 2.7, 0.1% formic acid in water / acetonitrile, gradient 10% to 95% acetonitrile
row,Compound,log P
1,CC1(C(=O)NC2=NCCO2)CC(c2ccc3ncc(Br)cc3c2)=NO1 (stereo not drawn) [compound 495],1.71[a]
2,Cc1ncsc1CNC(=O)C1(C)CC(c2ccc3ncc(Br)cc3c2)=NO1 (stereo not drawn) [compound 487],2.28[a]
3,C#Cc1cnc2ccc(C3=NOC(C)(C(=O)NCCCN(C)C)C3)cc2c1 (racemic) [compound 363],1.11[a]
4,CC1(C(=O)NC(C)(C)c2ccon2)CC(c2ccc3ncc(Br)cc3c2)=NO1 (stereo not drawn) [compound 494],2.86[a]
5,CCn1nc(C)c(NC(=O)C2(C)CC(c3ccc4ncc(Br)cc4c3)=NO2)c1C (stereo not drawn) [compound 492],2.41[a]
6,CCn1cc(CNC(=O)C2(C)CC(c3ccc4ncc(NC(=O)OC(C)(C)C)cc4c3)=NO2)c(C)n1 (stereo not drawn) [compound 421],2.44[a]
7,CC1(C(=O)NCc2ccsc2)CC(c2ccc3ncc(Br)cc3c2)=NO1 (stereo not drawn) [compound 479],3.07[a]
8,CC1(C)OCC(CNC(=O)C23CC2C(c2ccc4ncc(Br)cc4c2)=NO3)O1 (racemic) [compound 400],2.75[a]
9,O=C(NC1CC1)C12CC1C(c1ccc3ncc(Br)cc3c1)=NO2 (racemic) [compound 398],2.50[a]
10,CC(C)NC(=O)C12ON=C(c3ccc4ncc(Br)cc4c3)C1C2C (racemic) [compound 403],3.11[a]
11,COC(=O)CC1(C(=O)NC(C)C)CC(c2ccc3ncc(Br)cc3c2)=NO1 (racemic) [compound 387],2.66[a]
12,CN(CC(NC(=O)C1(C)CC(c2ccc3ncc(Br)cc3c2)=NO1)C1CC1)c1ccccc1 (stereo not drawn) [compound 362],4.19[a]

# Same assay, conditions: method [a]: HPLC/LC-MS on reversed phase at pH 2.7, 0.1% formic acid in water / acetonitrile, linear gradient 10% to 95% acetonitrile
row,Compound,log P
1,CC1(C(=O)NCc2ccc3[nH]ccc3c2)CC(c2ccc3ncc(Br)cc3c2)=NO1 (stereo not drawn) [compound 116],2.92^[a]
2,CCn1cc(CNC(=O)C2(C)CC(c3ccc4ncc(-c5cccs5)cc4c3)=NO2)c(C)n1 (stereo not drawn) [compound 142],2.63^[a]
3,O=C(NC1CC1)C1(Cc2ccccc2)CC(c2ccc3ncc(Br)cc3c2)=NO1 (stereo not drawn) [compound 60],3.46^[a]
4,CC(C)NC(=O)C1(C(C)C)CC(c2ccc3ncc(Br)cc3c2)=NO1 (stereo not drawn) [compound 62],3.51^[a]
5,CC1(C(=O)NCC[Si](C)(C)C)CC(c2ccc3ncc(Br)cc3c2)=NO1 (stereo not drawn) [compound 228],4.14^[a]
6,CC(C)NC(=O)C1(C)CC(c2ccc3ncc(C#N)cc3c2)=NO1 (stereo not drawn) [compound 79],2.12^[a]
7,CC1(C(=O)NCc2ccncc2)CC(c2ccc3ncc(Br)cc3c2)=NO1 (stereo not drawn) [compound 102],1.34^[a]
8,CCn1cnnc1CNC(=O)C1(C)CC(c2ccc3ncc(Br)cc3c2)=NO1 (stereo not drawn) [compound 154],1.72^[a]
9,CC1(C(=O)NCc2cnn(-c3ccccc3)n2)CC(c2ccc3ncc(Br)cc3c2)=NO1 (stereo not drawn) [compound 96],3.5^[a]
10,CCC(C)NC(=O)C1(C)CC(c2cc3cc(Br)cnc3c(F)c2OC)=NO1 (stereo not drawn) [compound 27],3.29^[a]
11,C#Cc1cnc2ccc(C3=NOC(C)(C(=O)NCCc4ccc(Cl)cc4)C3)cc2c1 (stereo not drawn) [compound 210],3.25^[a]
12,CCCCC1(C(=O)NCc2cn(CC)nc2C)CC(c2ccc3ncc(Br)cc3c2)=NO1 (stereo not drawn) [compound 72],3.37^[a]
13,CCn1cc(CNC(=O)C2(C)CC(c3ccc4ncc([S+](C)[O-])cc4c3)=NO2)c(C)n1 (stereo not drawn) [compound 145],1.34^[a]
14,CN1C(=O)CCC1CNC(=O)C1(C)CC(c2ccc3ncc(Br)cc3c2)=NO1 (stereo not drawn) [compound 124],1.85^[a]
15,CCN1CCCC1CNC(=O)C1(C)CC(c2ccc3ncc(Br)cc3c2)=NO1 (stereo not drawn) [compound 126],1.37^[a]

# Same assay, conditions: pH 2.7
row,Compound,chromatographic logP
1,CC(C)NC(=O)C1(C)CC(c2ccc3ncc(-c4cncnc4)cc3c2)=NO1 (stereo not drawn) [Compound No. 258],1.79
